# Patent US20060276340A1, “HERBICIDE COMPOSITION COMPRISING PYRIBAMBENZ-PROPYL OR PYRIBAMBENZ-ISOPROPYL” (Zhejiang Chem-Tech Group Co., Ltd., priority 2003, published 2006)
# How the values were obtained:
# Type in all cases: in vivo
# Cerastium arvense [1] = assay: greenhouse pot test, post-emergence early stage treatment; settings: CERAR 3˜4 leaves
# Procedure: (§1) The test soil is a formulated sandy loam soil. 9.5 centimeter diameter pots are used for herbicidal activity test.
# (§2) The pots for post-emergence treatment are placed into a greenhouse and incubated for 7 to 9 days, and then subjected to leave treatment by spraying. The preparation liquid for the treatment prepared by mixing individual single-herbicides was diluted with water to the desired dosage.
# (§3) The treated pots stood for one day, then were placed in a greenhouse and watered regularly. The herbicidal activities of the compositions were evaluated by visual examination after incubating for 14 to 21 days.
# (§4) The herbicidal activities of the compositions were evaluated by plant symptoms such as stunting, deformity, chlorosis, and whitening. 0 represents that the compositions have no herbicidal effect or have safety to crops. 100 represents that the weeds or crops were completely killed.
# Beckmannia syzigachne = assay: as above; settings: BECSY 2˜3 leaves
# Procedure: as §1, §2, §3, §4
# Galium aparine [2] = assay: as above; settings: GALAP 7˜8 leaves
# Procedure: as §1, §2, §3, §4
# Poa annua = assay: as above; settings: POAAN 2˜3 leaves
# Procedure: as §1, §2, §3, §4
# Alopecurus aequalis [3] = assay: greenhouse pot test, post-emergence treatment; settings: ALOAE 3 leaves
# Procedure: as §1, §2, §3, §4
# Cerastium arvense [4] = assay: greenhouse pot test, post-emergence treatment; settings: CERAR 6 leaves
# Procedure: as §1, §2, §3, §4
# Polypogon fugax [5] = assay: greenhouse pot test, post-emergence treatment; settings: POLFU 4˜4.5 leaves
# Procedure: as §1, §2, §3, §4
# Galium aparine [6] = assay: greenhouse pot test, post-emergence treatment; settings: GALAP 7˜8 leaves
# Procedure: as §1, §2, §3, §4
# weeds in rape field = assay: weed control in rape field, descriptive statements
# Alopecurus aequalis [7] = assay: greenhouse pot test, pre-emergence treatment; settings: ALOAE
# Procedure: as §1
# (§5) The soil in the pot for the pre-emergence test was sprayed one day after planting. The preparation liquid for the treatment prepared by mixing individual single-herbicides was diluted with water to the desired dosage.
# as §3, §4
# Cerastium arvense [8] = assay: greenhouse pot test, pre-emergence treatment; settings: CERAR
# Procedure: as §1, §5, §3, §4
# Polypogon fugax [9] = assay: greenhouse pot test, pre-emergence treatment; settings: POLFU
# Procedure: as §1, §5, §3, §4
# Galium aparine [10] = assay: greenhouse pot test, pre-emergence treatment; settings: GALAP
# Procedure: as §1, §5, §3, §4
structure (smiles),measurement,setting,value
CCOc1nc(NC)nc(NC(=O)NS(=O)(=O)c2ccccc2C(=O)O)n1 [ethametsulfuron],visual evaluation of weed effects,Cerastium arvense [1]; ethametsulfuron 6 g/ha,90%
same,visual evaluation of weed effects,Cerastium arvense [1]; ethametsulfuron 9 g/ha,90%
same,visual evaluation of weed effects,Beckmannia syzigachne; ethametsulfuron 6 g/ha,40%
same,visual evaluation of weed effects,Beckmannia syzigachne; ethametsulfuron 9 g/ha,40%
same,visual evaluation of weed effects,Galium aparine [2]; ethametsulfuron 6 g/ha,90%
same,visual evaluation of weed effects,Galium aparine [2]; ethametsulfuron 9 g/ha,90%
same,visual evaluation of weed effects,Poa annua; ethametsulfuron 6 g/ha,70%
same,visual evaluation of weed effects,Poa annua; ethametsulfuron 9 g/ha,80%
same,visual evaluation of weed effects,Alopecurus aequalis [3]; 6 g/ha,90%
same,visual evaluation of weed effects,Alopecurus aequalis [3]; 7.5 g/ha,90%
same,visual evaluation of weed effects,Alopecurus aequalis [3]; 9 g/ha,90%
same,visual evaluation of weed effects,Cerastium arvense [4]; 6 g/ha,90%
same,visual evaluation of weed effects,Cerastium arvense [4]; 7.5 g/ha,90%
same,visual evaluation of weed effects,Cerastium arvense [4]; 9 g/ha,90%
same,visual evaluation of weed effects,Polypogon fugax [5]; 6 g/ha,60%
same,visual evaluation of weed effects,Polypogon fugax [5]; 7.5 g/ha,60%
same,visual evaluation of weed effects,Polypogon fugax [5]; 9 g/ha,70%
same,visual evaluation of weed effects,Galium aparine [6]; 6 g/ha,85%
same,visual evaluation of weed effects,Galium aparine [6]; 7.5 g/ha,90%
same,visual evaluation of weed effects,Galium aparine [6]; 9 g/ha,90%
same,weed control,weeds in rape field; grass weeds,rather moderate control
same,weed control,weeds in rape field; most of broadleaf weeds,remarkable control
same,visual evaluation of weed effects,Alopecurus aequalis [7]; 6 g/ha,80%
same,visual evaluation of weed effects,Alopecurus aequalis [7]; 7.5 g/ha,90%
same,visual evaluation of weed effects,Alopecurus aequalis [7]; 9 g/ha,95%
same,visual evaluation of weed effects,Cerastium arvense [8]; 6 g/ha,85%
same,visual evaluation of weed effects,Cerastium arvense [8]; 7.5 g/ha,90%
same,visual evaluation of weed effects,Cerastium arvense [8]; 9 g/ha,95%
same,visual evaluation of weed effects,Polypogon fugax [9]; 6 g/ha,60%
same,visual evaluation of weed effects,Polypogon fugax [9]; 7.5 g/ha,70%
same,visual evaluation of weed effects,Polypogon fugax [9]; 9 g/ha,75%
same,visual evaluation of weed effects,Galium aparine [10]; 6 g/ha,10%
same,visual evaluation of weed effects,Galium aparine [10]; 7.5 g/ha,40%
same,visual evaluation of weed effects,Galium aparine [10]; 9 g/ha,70%
